Measurements: patent US9822068B2, “Inhibitors of fatty acid amide hydrolase (FAAH) enzyme with improved oral bioavailability and their use as medicaments” (THE REGENTS OF THE UNIVERSITY OF CALIFORNIA, priority 2014, dated 2017)
Values after ≈ are worked out from the molar mass of the structure shown. Like-named read-outs stand apart in the source and are kept apart here.

How the values were obtained:
[1] = Aqueous kinetic solubility assay; format: physicochemical; details: phosphate buffered saline, aqueous buffer, kinetic from dmso stock, PBS pH 7.4, target 250 μM, 2.5% DMSO, 25° C.
Description: Aqueous Kinetic Solubility Assay
The aqueous kinetic solubility was determined from a 10 mM DMSO stock solution of test compound in Phosphate Buffered Saline (PBS) at pH 7.4.
The study was performed by incubation of an aliquot of 10 mM DMSO stock solution in PBS (pH 7.4) at a target concentration of 250 μM resulting in a final concentration of 2.5% DMSO. The incubation was carried out under shaking at 25° C. for 24 h followed by centrifugation. The supernatant was analyzed by UPLC/MS for the quantification of dissolved compound by UV at a specific wavelength (215 nm).
The aqueous kinetic solubility (in μM) was calculated by dividing the peak area of the supernatant by the peak area of the test compound reference and further multiplied by the concentration of the test compound reference and dilution factor.
The UPLC/MS analyses were performed on a Waters ACQUITY UPLC/MS system consisting of a SQD (Single Quadrupole Detector) Mass Spectrometer equipped with an Electrospray Ionization interface and a Photodiode Array Detector. The PDA range was 210-400 nm. The analyses were run on an ACQUITY UPLC BEH C18 column (50×2.1 mmID, particle size 1.7 m) with a VanGuard BEH C18 pre-column (5×2.1 mmID, particle size 1.7 μm). The mobile phase was 10 mM NH4OAc in H2O at pH 5 adjusted with AcOH (A) and 10 mM NH4OAc in MeCN—H2O (95:5) at pH 5 (B). Electrospray ionization in positive and negative mode was applied in the mass scan range 100-500 Da.

[2] = Pharmacokinetic experiment in cannulated Sprague-Dawley rats (PO and IV); format: in vivo; details: plasma, rat; for bioavailability: PO 10 mg/kg vs IV 3 mg/kg, read-out: Oral bioavailability (F %)
Description: Pharmacokinetic Experiment and Analysis
Compounds were administered orally (PO) and intravenously (IV) to cannulated Sprague-Dawley rats at 10 and 3 mg/kg, respectively. Vehicle was: PEG400/Tween 80/Saline solution at 10/10/80 (% in volume), respectively. Three animals per dose were treated. Blood samples at 0, 15, 30, 60, 120, 240, 480 and 1440 min after administration were collected for PO arm. Blood samples at 0, 5, 15, 30, 60, 120 and 240 min after administration were collected for IV arm. Plasma was separated from blood by centrifugation for 15 min at 3500 rpm a 4° C., collected in a Eppendorf tube and frozen (−80° C.). Control animals treated with vehicle only were also included in the experimental protocol.
Preparation of Samples, Standard Curve and QC Samples for UPLC-MS Analysis
Samples were thawed in an ice bath and after a short centrifugation transferred (50 μL) into a 96-deepwell plate and added with 150 μL of acetonitrile spiked with 200 nM Warfarin (the Internal Standard, I.S.). After agitation (3 min) the plate was centrifuged at 3000 g for 10 min at 4° C. 80 μL of supernatant was then transferred in a 96-well plate and added with 80 μL of water. Standard compound was spiked in neat solvent (PBS pH 7.4 added with 10% acetonitrile) to prepare a calibration curve over the 1 nM-10 μM range. Three quality controls (QCs) samples were also prepared spiking the compound in blank rat plasma to final 20, 200 and 2000 nM concentrations. Calibrators and QCs were crashed with acetonitrile spiked with the I.S. as described for the plasma samples. Dosing solutions, previously diluted 2000 fold in the neat solvent were also included in the samples and tested.
Compounds plasma levels were monitored on a Xevo TQ UPLC-MS/MS system (Waters, Milford USA), using the calibration curve and the internal standard (Warfarin). Chromatography was carried out on a Acquity BEH C18 column (2.1×50 mmID, 1.7 m particle size, Waters, Milford USA). Flow rate was 0.5 mL/min. The mobile phase was (A) H2O/0.1% formic acid; (B) MeCN/0.1% formic acid. A linear gradient was applied from 5 to 100% B in 2 min. 3 μL of each sample were loaded on column. MS parameters and multiple reaction monitoring (MRM) transitions were carefully tuned for each compound. Plasma levels data were analyzed using PKSolutions excel application (Summit Research Service, USA) to derive the most important pharmacokinetic parameters.
The oral bioavailability (F %) data, and the Area Under the Curve (AUC) data (ng×min/mL) corresponding to the IV (3 mg/kg) and PO (10 mg/kg) dose of selected compounds described in the Examples are reported in Table 3. Their F % data are in the range from 35 to 87.

human FAAH-1 = human FAAH-1 (Homo sapiens (Human), UniProt O00519); experiment: In vitro human FAAH fluorescent assay; format: biochemical; details: human FAAH-1 membrane preparation from HEK-293, 50 min pre-incubation at 37° C.; read-out: h-FAAH IC50
Description: In Vitro Human FAAH Fluorescent Assay
Human recombinant FAAH was obtained from a HEK-293 cell line stably overexpressing human FAAH-1 enzyme. Cells were grown in Dulbecco's Modified Eagle Medium (DMEM) medium containing 10% FBS, 1% pen/strep, 1% glutamine and 500 μg/mL G418. To obtain membrane preparation cells were scraped off with cold PBS and collected by centrifugation (500×g, 10 min, 4° C.); the cell pellet was re-suspended in 20 mM Tris-HCl pH 7.4, 0.32M sucrose, disrupted by sonication (10 pulses, 5 times) and centrifuged (800×g, 15 min, 4° C.); the collected supernatant was centrifuged at 105,000×g for 1 h at 4° C. and the pellet was re-suspended in PBS.
The fluorescent assay to measure FAAH activity was performed in 96 wells black plates: 2.5 μg of human FAAH-1 membrane preparation were pre-incubated for 50 min at 37° C., in 180 µL of assay buffer (50 mM TrisHCl pH 7.4, 0.05% Fatty acid-free-BSA) with 10 μL of inhibitor (at appropriate concentration in DMSO) or 10 μL DMSO to measure FAAH total activity. The background (no activity) samples were prepared using 180 μL of assay buffer without human FAAH-1 and 10 μL of DMSO. The reaction was then started by the addition of 10 μL of a 40 μM substrate solution (N. 10005098, Cayman Chemical) dissolved in ethanol, and used at a final concentration of 2 μM. The reaction was carried out for 30 min at 37° C. and fluorescence was measured with a Tecan Infinite M200 nanoquant plate reader (excitation wavelength 350 nm/emission wavelength 460 nm).
(§1) Concentrations causing half-maximal inhibition of FAAH, IC50 values, were determined by non-linear regression analysis of the Log [concentration]/response curves generated with mean replicate values using a four parameter Hill equation curve fitting with GraphPad Prism 5 (GraphPad Software Inc., CA—USA).

Rat FAAH = Rat FAAH (Rattus norvegicus (Rat), UniProt P97612); experiment: In vitro rat FAAH radiometric assay; format: biochemical; details: rat brain homogenate, 10 min pre-incubation at 37° C.; read-out: r-FAAH IC50
Description: In Vitro Rat FAAH Radiometric Assay
Rat FAAH was prepared from male Sprague Dawley rat brains, homogenized in a potter in 20 mM of Tris HCl pH 7.4, 0.32 M sucrose.
The radiometric assay used to measure FAAH activity was performed in Eppendorf tubes: 50 μg of total rat brain homogenate were pre-incubated in 445.5 μL of assay buffer (50 mM Tris-HCl pH 7.4, 0.05% Fatty acid-free-bovine serum albumin (BSA)) with 4.5 μL of inhibitor (at appropriate concentration in DMSO) or DMSO alone (to measure FAAH total activity) for 10 min at 37° C. The blank (no activity control) was prepared using 445.5 μL of assay buffer and 4.5 μL of DMSO without the 50 μg of total rat brain homogenate.
After 10 min of pre-incubation with test compounds, the reaction was started by adding of 50 μL of substrate and incubating for 30 min at 37° C. The substrate was prepared in assay buffer in order to achieve the final concentration of 1 μM arachidonoyl ethanolamide (Cayman Chemical N. 90050) and 0.6 nM anandamide [ethanolamine-1-^3H] (American Radiolabeled Chemicals Inc, ART. 0626, Conc. 1 mCi/mL, S.A. 60 Ci/mmol). The reaction was stopped by adding cold 1:1 CHCl3/MeOH. After 10 min of centrifugation (845×g at 4° C.) 600 μL of aqueous phase were transferred into scintillation vials previously filled with 3 mL of scintillation fluid (Ultima Gold™, Perkin Elmer Inc., Cat. 6013329). Radioactivity was measured by liquid scintillation counting (MicroBeta2 LumiJET Perkin Elmer Inc.).
as §1

[3] = IV, 3 mg/kg, read-out: AUC IV (3 mg/kg) (converted)
[4] = PO, 10 mg/kg, read-out: AUC PO (10 mg/kg) (converted)

Sequence of Rat FAAH (P97612 whole entry): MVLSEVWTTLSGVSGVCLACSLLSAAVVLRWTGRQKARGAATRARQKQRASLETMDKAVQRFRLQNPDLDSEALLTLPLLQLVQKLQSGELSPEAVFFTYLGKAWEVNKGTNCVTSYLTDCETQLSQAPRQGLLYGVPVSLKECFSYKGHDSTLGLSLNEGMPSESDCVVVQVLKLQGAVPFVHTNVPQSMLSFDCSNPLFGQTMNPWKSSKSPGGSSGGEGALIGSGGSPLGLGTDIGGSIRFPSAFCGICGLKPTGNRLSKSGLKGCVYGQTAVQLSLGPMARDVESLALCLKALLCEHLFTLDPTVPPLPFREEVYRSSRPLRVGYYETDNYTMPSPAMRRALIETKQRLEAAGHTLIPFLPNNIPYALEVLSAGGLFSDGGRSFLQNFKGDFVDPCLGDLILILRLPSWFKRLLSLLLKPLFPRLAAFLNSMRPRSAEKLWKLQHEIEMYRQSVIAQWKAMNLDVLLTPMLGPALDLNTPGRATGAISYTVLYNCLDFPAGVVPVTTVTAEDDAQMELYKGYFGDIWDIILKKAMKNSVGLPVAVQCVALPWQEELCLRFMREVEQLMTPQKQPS
Sequence of human FAAH-1 (O00519 whole entry): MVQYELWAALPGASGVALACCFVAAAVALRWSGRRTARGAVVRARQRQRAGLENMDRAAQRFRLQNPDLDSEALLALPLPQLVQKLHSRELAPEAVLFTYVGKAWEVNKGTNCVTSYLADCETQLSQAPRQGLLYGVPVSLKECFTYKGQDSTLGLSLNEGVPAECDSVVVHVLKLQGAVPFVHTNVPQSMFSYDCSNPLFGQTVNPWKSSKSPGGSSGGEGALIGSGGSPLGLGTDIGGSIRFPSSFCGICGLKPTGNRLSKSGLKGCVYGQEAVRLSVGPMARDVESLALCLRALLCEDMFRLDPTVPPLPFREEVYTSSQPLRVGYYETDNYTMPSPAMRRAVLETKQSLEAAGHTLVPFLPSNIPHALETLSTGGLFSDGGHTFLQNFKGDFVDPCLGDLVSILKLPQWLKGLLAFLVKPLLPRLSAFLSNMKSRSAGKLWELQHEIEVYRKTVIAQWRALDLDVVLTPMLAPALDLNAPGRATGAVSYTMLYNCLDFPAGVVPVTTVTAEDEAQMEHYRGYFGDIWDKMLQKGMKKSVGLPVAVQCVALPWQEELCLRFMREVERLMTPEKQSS

CNC(=O)c1cccc(-c2cccc(OC(=O)NC3CCCCC3)c2)c1 [[drawing 127] comparison compound, reference compound]
solubility kinetic at 24 h [1]: 18 µM (≈ 6.34 µg/mL)
bioavailability [2]: 30%
AUC [2, 3]: 1520 ng·h/mL
AUC [2, 4]: 1500 ng·h/mL

NC(=O)c1cccc(-c2cccc(OC(=O)NC3CCC3)c2)c1 [[drawing 131] comparison compound, reference compound]
solubility kinetic at 24 h [1]: 6 µM (≈ 1.86 µg/mL)
bioavailability [2]: 39%
AUC [2, 3]: 891 ng·h/mL
AUC [2, 4]: 1160 ng·h/mL

CNC(=O)c1cccc(-c2cc(OC(=O)NC3CCC3)ccc2F)c1 [Example 6, [4-fluoro-3-[3-(methylcarbamoyl)phenyl]phenyl] N-cyclobutylcarbamate]
solubility kinetic at 24 h [1]: 183 µM (≈ 62.7 µg/mL)
IC50 (human FAAH-1): 6.6 nM
IC50 (Rat FAAH): 5.1 nM

NC(=O)c1cccc(-c2cccc(OC(=O)NC3CCCCC3)c2F)c1 [Example 13, [3-(3-Carbamoylphenyl)-2-Fluoro-Phenyl] N-Cyclohexylcarbamate]
IC50 (human FAAH-1): 0.89 nM
IC50 (Rat FAAH): 1.9 nM

CNC(=O)c1cccc(-c2cc(OC(=O)NC3CCCC3)ccc2F)c1 [Example 4, [4-fluoro-3-[3-(methylcarbamoyl)phenyl]phenyl] N-cyclopentylcarbamate]
solubility kinetic at 24 h [1]: 96 µM (≈ 34.2 µg/mL)
IC50 (human FAAH-1): 2.9 nM
IC50 (Rat FAAH): 3.9 nM

NS(=O)(=O)c1cccc(-c2cccc(OC(=O)NC3CCCCC3)c2)c1 [[drawing 129] comparison compound, reference compound]
solubility kinetic at 24 h [1]: 7 µM (≈ 2.62 µg/mL)
bioavailability [2]: 21%
AUC [2, 3]: 725 ng·h/mL
AUC [2, 4]: 502 ng·h/mL

NC(=O)c1cccc(-c2cc(OC(=O)NC3CCCC3)ccc2F)c1 [Example 5, [3-(3-carbamoylphenyl)-4-fluoro-phenyl] N-cyclopentylcarbamate]
IC50 (human FAAH-1): 0.84 nM
IC50 (Rat FAAH): 2.9 nM

CS(=O)(=O)c1cccc(-c2cc(OC(=O)NC3CCCCC3)ccc2F)c1 [Example 7, [4-Fluoro-3-(3-methylsulfonylphenyl)phenyl] N-cyclohexylcarbamate]
IC50 (human FAAH-1): 4.9 nM
IC50 (Rat FAAH): 8.9 nM

NS(=O)(=O)c1cccc(-c2cc(OC(=O)NC3CCCCC3)ccc2F)c1 [Example 2, [4-fluoro-3-(3-sulfamoylphenyl)phenyl] N-cyclohexylcarbamate]
solubility kinetic at 24 h [1]: 28 µM (≈ 11 µg/mL)
bioavailability [2]: 35%
AUC [2, 3]: 746 ng·h/mL
AUC [2, 4]: 867 ng·h/mL
IC50 (human FAAH-1): 11 nM
IC50 (Rat FAAH): 0.7 nM

NC(=O)c1cccc(-c2cc(F)cc(OC(=O)NC3CCCCC3)c2)c1 [Example 12, [3-(3-Carbamoylphenyl)-5-fluoro-phenyl] N-cyclohexylcarbamate]
IC50 (human FAAH-1): 0.87 nM
IC50 (Rat FAAH): 0.23 nM

NC(=O)c1cccc(-c2cc(OC(=O)NC3CCC3)ccc2F)c1 [Example 3, [3-(3-carbamoylphenyl)-4-fluoro-phenyl] N-cyclobutylcarbamate]
solubility kinetic at 24 h [1]: 33 µM (≈ 10.8 µg/mL)
bioavailability [2]: 79%
AUC [2, 3]: 498 ng·h/mL
AUC [2, 4]: 1310 ng·h/mL
IC50 (human FAAH-1): 1.8 nM
IC50 (Rat FAAH): 0.9 nM

CS(=O)(=O)c1cccc(-c2cc(OC(=O)NC3CCCCC3)ccc2OC(F)F)c1 [Example 11, [4-(difluoromethoxy)-3-(3-methylsulfonylphenyl)phenyl] N-cyclohexylcarbamate]
solubility kinetic at 24 h [1]: 12 µM (≈ 5.27 µg/mL)
IC50 (human FAAH-1): 6.5 nM
IC50 (Rat FAAH): 2.9 nM

CNC(=O)c1cccc(-c2cc(OC(=O)NC3CCCCC3)ccc2OC(F)F)c1 [Example 9, [4-(difluoromethoxy)-3-[3-(methylcarbamoyl)phenyl]phenyl] N-cyclohexyl carbamate]
solubility kinetic at 24 h [1]: 8 µM (≈ 3.35 µg/mL)
bioavailability [2]: 53%
AUC [2, 3]: 1390 ng·h/mL
AUC [2, 4]: 2480 ng·h/mL
IC50 (human FAAH-1): 12 nM
IC50 (Rat FAAH): 3.5 nM

NC(=O)c1cccc(-c2cccc(OC(=O)NC3CCCCC3)c2)c1 [[drawing 135] comparison compound, reference compound]
solubility kinetic at 24 h [1]: 1 µM (≈ 0.338 µg/mL)
bioavailability [2]: 5%
AUC [2, 3]: 2560 ng·h/mL
AUC [2, 4]: 446 ng·h/mL

NS(=O)(=O)c1cccc(-c2cc(OC(=O)NC3CCCCC3)ccc2OC(F)F)c1 [Example 10, [4-(difluoromethoxy)-3-(3-sulfamoylphenyl)phenyl] N-cyclohexylcarbamate]
IC50 (human FAAH-1): 9.2 nM
IC50 (Rat FAAH): 8.2 nM
